Measured values reported in patent US9260410B2, “P38 MAP kinase inhibitors” (Respivert Ltd., priority 2010, dated 2016).
Like-named read-outs stand apart in the source and are kept apart here.

What was measured:
[1] = tested on: LPS-induced TNFα release in THP-1 cells; assay: LPS-induced TNFα release in THP-1 cells; format: cell-based; conditions: Homo sapiens
Method: THP-1 cells, a human monocytic cell line, were stimulated with 3 μg/mL of LPS (from E. Coli; 0111:B4, Sigma) for 4 hr and the supernatant collected for determination of the TNFα concentration by sandwich ELISA (Duo-set, R&D systems). The inhibition of TNFα production was calculated at each concentration by comparison with vehicle control. The 50% inhibitory concentration (IC50) was determined from the resultant concentration-response curve.

[2] = tested on: LPS-induced TNFα release in d-U937 cells; assay: LPS-induced TNFα release in d-U937 cells; format: cell-based; conditions: Homo sapiens, dU937, 4 h
Method: U937 cells, a human monocytic cell line, were differentiated to macrophage-type cells by incubation with phorbol myristate acetate (PMA; 100 ng/ml) for 48 to 72 hr. […] The supernatant was collected for determination of TNFα and IL-8 concentrations by sandwich ELISA (Duo-set, R&D systems). […] The relative 50% effective concentration (REC50) was determined from the resultant concentration-response curve. The inhibition of IL-8 production was calculated at each concentration of test compound by comparison with vehicle control.

[3] = tested on: Differentiated U937 cells; assay: MTT assay: cell viability; format: cell-based, human; conditions: 10 μg/ml
Method: The supernatant was replaced with 200 μL of new media and 10 μL of MTT stock solution (5 mg/mL) was added to each well. After incubation for 1 hr the media were removed, 200 μL of DMSO was added to each well and the plates were shaken lightly for 1 hr prior to reading the absorbance at 550 nm. The percentage loss of cell viability was calculated for each well relative to vehicle (0.5% DMSO) treatment. Consequently an apparent increase in cell viability for drug treatment relative to vehicle is tabulated as a negative percentage.

Row | Compound | IC50 ([1]; THP-1 cells, 3 μg/mL LPS, 4 hr, read-out: LPS/TNFα THP-1 IC50) [nM] | EC50 ([2]; read-out: LPS/TNFα d-U937 REC50) [nM] | MTT Assay 4 h (cell viability) ([3]; d-U937, 4 hr in 5% FCS) | MTT Assay 24 h (cell viability) ([3]; d-U937, 24 h in 10% FCS) | IC50 ([1]; THP-1, 4 h, read-out: LPS/TNFα THP-1 IC50 (nM)) [nM] | EC50 ([2]; read-out: LPS/TNFα d-U937 REC50 (nM)) [nM]
1 | Cc1ccc(-n2nc(C(C)(C)C)cc2NC(=O)Nc2ccc(OCCN3CCOCC3)c3ccccc23)cc1 [BIRB796, 1-(3-tert-Butyl-1-p-tolyl-1H-pyrazol-5-yl)-3-(4-(2-morpholinoethoxy)naphthalen-1-yl)urea] | 4.1 | 4.8 | − (− = <30% inhibition at 10 μg/ml) | − (− = <30% inhibition at 10 μg/ml) |  | 
2 | CC(=O)Nc1cc(Oc2ccc(NC(=O)Nc3cc(C(C)(C)C)nn3-c3ccc(C)cc3)c3ccccc23)ccn1 [Example 3, N-(4-((4-(3-(3-(tert-Butyl)-1-(p-tolyl)-1H-pyrazol-5-yl)ureido)naphthalen-1-yl)oxy)pyridin-2-yl)acetamide] |  |  |  |  | 1.6 | 1
